Where “and” joins values, the source holds several entries; their conditions need not be identical. Equal entries are not always repeated. ± gives the uncertainty stated by the source.
Test: xn = mol fraction of the nth substance listed

CN(CCO)CCO + O
viscosity
Conditions	293.15 K	298.15 K	303.15 K	308.15 K	313.15 K	323.15 K
100 kPa, x1 = 0.131	–	9.324 ± 0.38 mPa·s	–	–	–	–
101 kPa, x1 = 0.06	–	–	2.548 ± 0.085 mPa·s	–	1.906 ± 0.061 mPa·s	–
101 kPa, x1 = 0.1	7.325 ± 0.88 mPa·s	–	4.901 ± 0.51 mPa·s	–	3.458 ± 0.32 mPa·s	2.551 ± 0.22 mPa·s
101 kPa, x1 = 0.11	–	–	5.312 ± 0.17 mPa·s	–	3.729 ± 0.12 mPa·s	2.777 ± 0.087 mPa·s
101 kPa, x1 = 0.1991	26.19 ± 1.9 mPa·s	–	15.41 ± 1.1 mPa·s	–	9.684 ± 0.66 mPa·s	6.517 ± 0.43 mPa·s
101 kPa, x1 = 0.2985	56.54 ± 3.6 mPa·s	–	31.07 ± 2 mPa·s	–	18.14 ± 1.1 mPa·s	11.42 ± 0.72 mPa·s
101 kPa, x1 = 0.3975	84.73 ± 5.2 mPa·s	–	45.33 ± 2.8 mPa·s	–	25.74 ± 1.6 mPa·s	15.8 ± 0.97 mPa·s
101 kPa, x1 = 0.4963	103.2 ± 6.4 mPa·s	–	54.91 ± 3.3 mPa·s	–	31.5 ± 1.9 mPa·s	18.96 ± 1.2 mPa·s
101 kPa, x1 = 0.5949	113.9 ± 7 mPa·s	–	60.93 ± 3.7 mPa·s	–	–	20.85 ± 1.3 mPa·s
101 kPa, x1 = 0.6934	115.5 ± 7.1 mPa·s	–	62.48 ± 3.8 mPa·s	–	35.73 ± 2.2 mPa·s	21.72 ± 1.3 mPa·s
101 kPa, x1 = 0.7916	113.6 ± 7 mPa·s	–	61.99 ± 3.8 mPa·s	–	35.44 ± 2.1 mPa·s	21.95 ± 1.3 mPa·s
101 kPa, x1 = 0.8896	109.8 ± 6.8 mPa·s	–	59.49 ± 3.6 mPa·s	–	35.12 ± 2.1 mPa·s	–
101 kPa, x2 = 0.815	–	17.44 ± 0.24 mPa·s	–	–	–	–
101 kPa, x2 = 0.9	–	9.66 ± 0.11 mPa·s	–	–	–	–
101 kPa, x2 = 0.91	6.35 ± 1.3 mPa·s	5.4 ± 0.06 mPa·s and 5.25 ± 1.1 mPa·s	4.34 ± 0.87 mPa·s	–	–	–
101 kPa, x2 = 0.9391	–	3.27 ± 0.03 mPa·s	–	–	–	–
101 kPa, x2 = 0.94	3.53 ± 0.71 mPa·s	2.99 ± 0.6 mPa·s	2.54 ± 0.51 mPa·s	–	1.89 ± 0.38 mPa·s	1.45 ± 0.29 mPa·s
101 kPa, x2 = 0.96	2.264 ± 0.45 mPa·s	1.921 ± 0.38 mPa·s	1.695 ± 0.34 mPa·s	–	1.32 ± 0.26 mPa·s	–
101.3 kPa, x1 = 0.02	1.541 ± 0.25 mPa·s	1.316 ± 0.25 mPa·s	–	–	0.931 ± 0.24 mPa·s	0.773 ± 0.24 mPa·s
101.3 kPa, x1 = 0.04	2.268 ± 0.26 mPa·s	1.924 ± 0.25 mPa·s	1.697 ± 0.25 mPa·s	–	1.325 ± 0.24 mPa·s	1.068 ± 0.24 mPa·s
101.3 kPa, x1 = 0.06	3.637 ± 0.29 mPa·s	3.036 ± 0.26 mPa·s	2.594 ± 0.25 mPa·s	–	–	–
101.3 kPa, x1 = 0.09	6.345 ± 0.37 mPa·s	5.245 ± 0.3 mPa·s	4.325 ± 0.28 mPa·s	–	3.107 ± 0.26 mPa·s	2.367 ± 0.25 mPa·s
101.3 kPa, x1 = 0.1	11.84 ± 0.64 mPa·s	9.196 ± 0.41 mPa·s	7.437 ± 0.34 mPa·s	–	5.101 ± 0.29 mPa·s	3.599 ± 0.27 mPa·s
101.3 kPa, x1 = 0.2	22.64 ± 0.98 mPa·s	17.25 ± 0.72 mPa·s	–	–	8.843 ± 0.39 mPa·s	6.015 ± 0.31 mPa·s
101.3 kPa, x1 = 0.3	37.14 ± 2 mPa·s	29.03 ± 1.1 mPa·s	22.69 ± 0.82 mPa·s	–	14.91 ± 0.57 mPa·s	9.618 ± 0.42 mPa·s
101.3 kPa, x1 = 0.4	71.95 ± 3.1 mPa·s	58.29 ± 2 mPa·s	42.41 ± 1.6 mPa·s	–	24.45 ± 1 mPa·s	14.36 ± 0.59 mPa·s
101.3 kPa, x1 = 0.6	101.9 ± 7.8 mPa·s	81.67 ± 5 mPa·s	54.66 ± 1.9 mPa·s	–	34.23 ± 1.4 mPa·s	19.22 ± 0.8 mPa·s
101.33 kPa, x1 = 0.017	–	–	1.137 ± 0.01 mPa·s	–	0.907 ± 0.008 mPa·s	–
101.33 kPa, x1 = 0.036	2.262 ± 0.022 mPa·s	1.941 ± 0.019 mPa·s	1.686 ± 0.016 mPa·s	–	–	1.051 ± 0.01 mPa·s
101.33 kPa, x1 = 0.061	3.69 ± 0.042 mPa·s	3.092 ± 0.035 mPa·s	–	–	–	–
101.33 kPa, x1 = 0.092	6.452 ± 0.085 mPa·s	5.253 ± 0.07 mPa·s	4.359 ± 0.057 mPa·s	3.671 ± 0.048 mPa·s	3.112 ± 0.041 mPa·s	2.309 ± 0.03 mPa·s
101.33 kPa, x1 = 0.13	11.7 ± 0.18 mPa·s	9.208 ± 0.14 mPa·s	7.436 ± 0.11 mPa·s	6.097 ± 0.092 mPa·s	–	3.642 ± 0.055 mPa·s

Reference: the CheMixHub viscosity set
